Where two headings read alike, the source gives them in different places. Marks after values point to notes of the source that are not given here.
Tests used:
Format in all cases: in vivo, human
[1] = Plasma pharmacokinetics, healthy subjects; details: human; for Cmax: read-out: Cmax; for AUC(0-inf): read-out: AUC(0–∞)
Description: Ten healthy subjects were evaluated in 5 study sessions, each separated by approximately 2 weeks. At each study session, subjects received either an oral dose of remogliflozin etabonate or placebo after an overnight fast. Remogliflozin etabonate doses were 20 mg, 50 mg, 150 mg, 500 mg and 1000 mg. Over the course of participation in the study, each subject received 4 of the 5 active remogliflozin etabonate doses and 1 dose of placebo (4:1 active to placebo ratio per treatment period). The available safety and PK results from each dosing period were evaluated before proceeding to the next dose level. On each dosing day, a series of 2.0 mL blood samples were collected at pre-dose and 10, 20, 30 and 45 min, and 1, 1.25, 1.5, 2, 2.5, 3, 4, 6, 8, 12, 16, and 24 h post-dose for the determination of remogliflozin etabonate, remogliflozin and GSK279782 in plasma by using high-performance liquid chromatography with tandem mass spectrometry (MS/MS) as described. Non-compartmental PK analysis of plasma concentration–time data was performed using WinNonlin Version 4.1 (Pharsight Corporation, Mountainview, CA, USA). The Cmax and Tmax were obtained directly from the data. Areas under the plasma concentration–time curves from time zero to the last quantifiable time point (AUC[0–last]) and extrapolated to infinity (AUC[0–∞]) were calculated using the log-linear trapezoidal method. The terminal plasma elimination rate-constant (λz) was estimated from log-linear regression analysis of the terminal phase of the plasma concentration–time curve, and the T½ was calculated as T½ = ln2/λz. Ratios of AUC(0–∞) remogliflozin to AUC(0–last) remogliflozin etabonate were calculated including molecular weight corrections. Safety and pharmacodynamic data were summarized using descriptive statistics. This was a small exploratory study and no formal hypothesis-testing was conducted. Dose proportionality with respect to Cmax, and AUC was assessed using the power model y = α dose^β, where y = Cmax or AUC, and α denotes a random subject effect. The exponent β in the power model will be estimated by regressing the loge-transformed PK parameters on loge dose, i.e. ln(PK parameter) = ln(α) + β * ln(dose). Dose proportionality implied that β = 1 and was assessed by estimating β and its corresponding 90% confidence interval. The power model was fitted by restricted maximum likelihood using SAS Proc Mixed.

[2] = 24-h urine electrolyte excretion, healthy subjects; details: for Urinary chloride excretion / Urinary potassium excretion / Urinary sodium excretion: 24-h, healthy subjects, mean (SD)
Description: Urine samples were collected at pre-dose, and over a series of intervals (0–2, 2–4, 4–6, 6–8, 8–12 and 12–24 h post-dose) for the analysis of creatinine, glucose and electrolytes (Na, K and Cl). All fluid intake was recorded, as well as urine volume, over the 24 hours before and after dosing in each treatment period. Urine was tested for protein on the first morning void of day -1 and 24 h after dosing.

[3] = Plasma glucose, healthy subjects; details: mean, very similar between placebo and remogliflozin etabonate periods
Description: Blood samples for glucose were taken at 0 (pre-dose), and 1, 2, 4, 8 and 12 h after dosing in each treatment period (Part A). For Part B, blood samples for glucose, insulin and GLP-1 were taken at check-in on day -2, and at 0 h (pre-dose), and 0.5, 1, 1.5, 2, 4 h (prior to lunch), 4.5, 5, 6, 8, 10, 12 and 24 h after dosing on day 1 of each treatment period.
For glucose, plasma was analyzed using a YSI 2300 Glucose Analyzer (Yellow Springs International Life Sciences, Yellow Springs, OH, USA). For insulin, plasma was rapidly prepared and frozen at -70°C until analyzed by LabCorp (San Diego, CA, USA) using a chemiluminescent immunometric assay method (Siemen’s Immulite 2000 analyzer with Immulite Insulin Kit L2KIN2).

[4] = plasma prodrug, healthy subjects, 50 mg oral dose, geometric mean (CV%)
[5] = plasma prodrug, healthy subjects, 150 mg oral dose, geometric mean (CV%)
[6] = plasma prodrug, healthy subjects, 500 mg oral dose, geometric mean (CV%)
[7] = plasma prodrug, healthy subjects, 1000 mg oral dose, geometric mean (CV%)

half-life ([1]; plasma, oral, both populations, independent of dose (abstract), read-out: mean plasma T½): ~25 min
Tmax ([1]; plasma, oral, healthy subjects, 20-1000 mg, read-out: median Tmax estimates, range across doses): 31.2 to 75 min
half-life ([1]; plasma, oral, healthy subjects, 20-1000 mg, read-out: median T½ estimates, range across doses): 15.6 to 42.6 min
half-life ([1]; plasma, po, 50 mg, plasma prodrug, healthy subjects, 50 mg oral dose, geometric mean (CV%), n = 6, read-out: T½ (converted)): 21.2 min
half-life ([1]; plasma, po, 150 mg, plasma prodrug, healthy subjects, 150 mg oral dose, geometric mean (CV%), n = 6, read-out: T½ (converted)): 15.4 min
half-life ([1]; plasma, po, 500 mg, plasma prodrug, healthy subjects, 500 mg oral dose, geometric mean (CV% 27), n = 4, read-out: T½ (converted)): 15.8 min
half-life ([1]; plasma, po, 1000 mg, plasma prodrug, healthy subjects, 1000 mg oral dose, geometric mean (CV% 56), n = 7, read-out: T½ (converted)): 42.4 min
AUC(0-t) ([1]; plasma prodrug, healthy subjects, 20 mg oral dose, geometric mean (CV%), n = 5): 1.61 ng·h/mL
Cmax ([1]; plasma prodrug, healthy subjects, 20 mg oral dose, geometric mean (CV%)): 1.89 ng/mL
Tmax ([1]; plasma prodrug, healthy subjects, 20 mg oral dose, median, read-out: Tmax): 37.5 min
AUC(0-t) [1, 4]: 3.56 ng·h/mL
AUC(0-inf) ([1]; plasma prodrug, healthy subjects, 50 mg oral dose, geometric mean (CV%), n = 6): 3.7 ng·h/mL
Cmax [1, 4]: 4.98 ng/mL
Tmax ([1]; plasma prodrug, healthy subjects, 50 mg oral dose, median, read-out: Tmax): 37.5 min
AUC(0-t) [1, 5]: 9.51 ng·h/mL
AUC(0-inf) ([1]; plasma prodrug, healthy subjects, 150 mg oral dose, geometric mean (CV%), n = 6): 9.77 ng·h/mL
Cmax [1, 5]: 17.6 ng/mL
Tmax ([1]; plasma prodrug, healthy subjects, 150 mg oral dose, median, read-out: Tmax): 30.9 min
AUC(0-t) [1, 6]: 35.4 ng·h/mL
AUC(0-inf) ([1]; plasma prodrug, healthy subjects, 500 mg oral dose, geometric mean (CV%), n = 4): 36.8 ng·h/mL
Cmax [1, 6]: 41.6 ng/mL
Tmax ([1]; plasma prodrug, healthy subjects, 500 mg oral dose, median, read-out: Tmax): 75 min
AUC(0-t) [1, 7]: 107 ng·h/mL
AUC(0-inf) ([1]; plasma prodrug, healthy subjects, 1000 mg oral dose, geometric mean (CV%), n = 7): 126 ng·h/mL
Cmax [1, 7]: 144 ng/mL
Tmax ([1]; plasma prodrug, healthy subjects, 1000 mg oral dose, median, read-out: Tmax): 37.5 min
Urinary chloride excretion ([2]; 20 mg single dose): 136 (56.6) mmol
Urinary potassium excretion ([2]; 20 mg single dose): 66.6 (27.7) mmol
Urinary sodium excretion ([2]; 20 mg single dose): 148 (64.0) mmol
Urinary chloride excretion ([2]; 50 mg single dose, n = 7): 189 (51.4)^b mmol
Urinary potassium excretion ([2]; 50 mg single dose, n = 7): 75.2 (21.3)^b mmol
Urinary sodium excretion ([2]; 50 mg single dose, n = 7): 212 (67.6)^b mmol
Urinary chloride excretion ([2]; 150 mg single dose, n = 7): 179 (49.6)^b mmol
Urinary potassium excretion ([2]; 150 mg single dose, n = 7): 59.7 (20.3)^b mmol
Urinary sodium excretion ([2]; 150 mg single dose, n = 7): 176 (38.7)^b mmol
Urinary chloride excretion ([2]; 500 mg single dose): 126 (55) mmol
Urinary potassium excretion ([2]; 500 mg single dose): 55.8 (17.2) mmol
Urinary sodium excretion ([2]; 500 mg single dose): 143 (55.0) mmol
Urinary chloride excretion ([2]; 1000 mg single dose): 201 (61.5) mmol
Urinary potassium excretion ([2]; 1000 mg single dose): 89.1 (24.7) mmol
Urinary sodium excretion ([2]; 1000 mg single dose): 207 (62.9) mmol
SMILES: CCOC(=O)OC[C@H]1O[C@@H](Oc2nn(C(C)C)c(C)c2Cc2ccc(OC(C)C)cc2)[C@H](O)[C@@H](O)[C@@H]1O [Remogliflozin etabonate, remogliflozin etabonate]
Effect on clinical laboratory results, urine electrolytes, vital signs or ECGs ([2]; all subjects): no obvious patterns suggesting an effect
Plasma glucose AUC 0–4 h [3]: approximately 18 mmol•h/L
Plasma glucose AUC 0–12 h [3]: 55 to 59 mmol·h/L

Source: publication PMC3700763, “First human dose-escalation study with remogliflozin etabonate, a selective inhibitor of the sodium-glucose transporter 2 (SGLT2), in healthy subjects and in subjects with type 2 diabetes mellitus” (BMC Pharmacology & Toxicology, 2013)
